Data taken from patent EP2829536A1, “4-Nitro-5-dichloromethylpyrazol derivatives for the treatment of infectious diseases” (priority 2013, dated 2015).
“Also recorded” adds a separate entry of the source. Like-named read-outs stand apart in the source and are kept apart here.

Tests used:
M. bovis BCG [1] = assay: microbe, parasite or virus in culture; format: cell-based; details: Mycobacterium tuberculosis variant bovis BCG
PtK2 cells = assay: Effect on cell morphology / endoplasmic reticulum by immunocytochemistry (ICC); format: cell-based, rat kangaroo; details: for morphological effect / ER stress: PtK2 cells, overnight
Description: Cell lines and media: Cells were grown at 37°C and 5% CO2 in the following media supplemented with 10 % FBS(Gibco): • L-929 cells (mouse connective tissue fibroblast: Dulbecco's modified Eagle's medium (DMEM), Lonza • PtK2 cells (rat kangaroo kidney epithelial cells): Minimum Essential Medium (MEM) medium, supplemented with 1 % non-essential amino acids and 1 % glutamax, Invitrogen.
The effects of the tested compounds on cell proliferation and the acute toxic effects were assayed in vitro on L929 cell line. The metabolic activity was measured by means of (MTT, (3-(4,5-Dimethylthiazol-2-yl)-2,5-diphenyltetrazolium bromide) cell survival colorimetric assay. Effect on proliferation: 60 µl of serial dilutions of the test compounds were added to 120 µl aliquots of a cell suspension (50,000 cells/ml) in 96-well microplates then incubated 5 days at 37°C and 5% CO2. 20 µl MTT dye were added to a final concentration of 0.5 mg/ml. After 2 h the precipitate of formazan crystals was centrifuged, and the supernatant discarded. After washing with PBS, the precipitate was dissolved in 100 µl of acidified propanol. The plates were stirred for 20 minutes and the optical density of the resulting color was measured at 590 nm. Acute toxic effect: It was investigated by plating 120 µl aliquots of a cell suspension (100,000-200,000 cells/ml) in 96-well microplates. The cells were incubated at 37°C and 5% CO2 and allowed to grow for two days to stop the cell propagation. Then 60 µl of serial dilutions of the test compounds were added and incubated for further 24h. Then the MTT assay was performed as described before. Results were expressed as the percentage of cellular viability in comparison to cells that were treated only with the vehicle. The IC50 values were determined as the concentrations at which cells developed 50% of the absorbance of untreated control cells as estimated from the dose-response curves of two parallel experiments. Immunofluorescence staining: The effects of substances on the phenotypical changes of cell shape and adhesion were investigatedin the potoroo (PtK2) cells after staining of the nucleus and the endoplasmic reticulum (ER). PtK2 cells were grown on cover slips in 4-well plates. semi-confluent cells were treated with test compounds and the plates were incubated over the night. The cells were fixed with cold methanol /acetone (1:1) for 10 min. Then the cells were washed with PBS and the primary antibody (anti GRP-94, thermoscientific) was added and incubated for 45 min and washed with PBS. Secondary antibody (Alexaflour goat anti-rat 488, Invitrogen) was then added to the cells and incubated for additional 45 min. Cells were washed with PBS and Cover slips were mounted in anti-fade mounting medium with DAPI (Invitrogen). Images were taken with a CCD camera attached to a fluorescence microscope.
The effects of substances on the phenotypical changes of cell shape and adhesion were investigated by the technique of immunocytochemistry (ICC). The endoplasmic reticulum (ER) was investigated upon treatment of the potoroo cells (PtK2) cells with/without test compounds.
PtK2 cells were grown on cover slips in 4-well plates. semi-confluent cells were treated with test compounds and the plates were incubated over the night. The cells were fixed with cold methanol /acetone for 10 min. Then the cells were washed with PBS and the primary antibody (anti GRP-94, thermoscientific) was added and incubated for 45 min and washed with PBS. […]

M. tuberculosis H37Rv = assay: Minimal inhibitory concentration by resazurin microtiter assay (REMA); format: cell-based; details: Mycobacterium tuberculosis, 168 h, 7 days incubation, read-out: (MIC) against M. tuberculosis H37Rv
L929 cell line [2] = assay: MTT assay, effect on proliferation (5 days); format: cell-based; details: Mus musculus, L929, 120 h
L929 cell line [3] = assay: MTT assay, acute toxic effect (24 h); format: cell-based; details: Mus musculus, L929, 24 h; 1 day (acute toxic effect)
M. bovis BCG [4] = format: cell-based
[5] = Hepatic microsomal stability; format: in vitro ADME, mice
[6] = system: H37Rv Pasteur M. tuberculosis strain; assay: Effectivity in mice infected with M. tuberculosis (bacillary load in lung and spleen); format: in vivo; details: for p (Lungs) / p (Spleen): vs sham
Description: Lx079 as well as two other components, Lx059 which is 10% DMSO in PBS buffer and Lx069 which is a combination of ethambutol (0.8 mg/ml) and myxopyronine (0.2 mg/ml), were tested for drug effectivity in mice. Two controls were included in the study (sham, non treated; and treated with Isoniazide (INH, 25 mg/kg).
The animals were infected at time point 0 with M. tuberculosis through an airborne infection apparatus (Glas-col Inc., Terre Haute, IN, USA) for infection with a low dose of H37Rv Pasteur M. tuberculosis strain. Nebulization provided an approximate uptake of 20-50 bacilli by mice lungs. The treatments and controls results were processed blindly. The experiment was run including 10 C57BL/6 mice per group. A volume of 0.2mL of each treatment was administered orally every day for 5 days, on week 2 post infection.
Mice were euthanized on week 3 with isoflurane (inhalation excess), and lung and spleen samples removed to and mechanically disrupted in order to obtain tissue homogenates to be plated cultured in Becton Dickinson 7H11 Middlebrook agar (Bennex Ltd, Shannon, Ireland) and incubated at 37 °C. Viable bacteria (Colony Forming Units, CFUs) were counted four weeks after, data being recorded as the log of the number of CFUs recovered per organ. The results of the different groups were represented graphically, compared and evaluated for statistically significant differences (non parametric comparison between each candidate and each control, Mann Whitney test), with the differences being considered significant at P≤0.05 (Graphpad software).
The effect on the bacillary load of each candidate results have been logarithmically represented as CFU/mL in the graphs attached. The lung and spleen results of each candidate and controls evaluated have been represented together (as box and whiskers, 5-95 percentiles plotted) and also per candidate with sham (results of each mouse and median and standard deviation plotted). Statistically significant differences (p<0.05) are marked with * if existing between the evaluated group and sham.

[7] = mouse, in vivo
[8] = female, C57/BL6, mouse, in vivo; for F (bioavailability): po
Description: (§1) Mice were weighed and checked according to the protocols and observation data sheets that were requested. Animals were followed for weight loss, apparent good health (bristled hair and wounded skin) and behaviour (signs of aggressiveness or isolation). Animals: Young adult (6-8 weeks old) female C57/BL6 mice, 20 mice for acute oral toxicity testing and 81 mice for PK experiment were used. The animals were nulliparous and non-pregnant weighing 20 ±1.5 g each. They were maintained in their cages provided with a standard laboratory rodent diet and unlimited supply of drinking water and were allowed to acclimatize to the laboratory conditions for seven days before starting the experiments. The temperature in the experimental animal room was kept at 22°C ± 3°C and the relative humidity was 50 ± 20 %. Lighting was artificial with the sequence 12 hours light and 12 hours dark. Substance formulation for in vivo model: Doses were prepared in 5% DMSO in sterile water for oral dosing through oral gavage at a dose volume of 0.3 ml, and in 5% DMSO in PBS, pH 7.4 for IV bolus injection via tail vein at a dose volume 0.1 ml.
(§2) The animals were divided into one IV group (27 mice), 2 oral groups (24 mice each), control IV group (3 mice) and control oral group (3 mice). The IV group and one oral group were dosed with 12.5 mg/kg and the other oral group was dosed with 25 mg/kg, while the control groups received the vehicle. All blood samples were collected at 15 and 30 min and 1, 2, 4, 6, 8, and 24 h after oral dosing, and at 5, 15, and 30 min and 1, 2, 4, 6, 8, and 24 h following intravenous administration. The blood was collected from the control groups at 24 h. Mice were euthanized with isoflurane and a 0.3 mL aliquot of blood was collected via terminal bleed from three mice at each time point. Blood samples were collected in heparin as anticoagulant and plasma was harvested by centrifugation at 10,000 rpm for 2 minutes. Plasma samples were kept at -80 °C until analysis.

in vivo = details: female, C57/BL6, mouse; for bioavailability: F (bioavailability)
Description: as §1, §2

[9] = Acute oral toxicity in mice; details: for No. of dead mice: 5 mice, 14 days; for % Cumulative of dead mice: Reed-Muench method
[10] = dose group Lx079-1 (dose not given)
[11] = dose group Lx079-2 (dose not given)
[12] = dose group Lx079-3 (dose not given)
[13] = dose group Lx079-4 (dose not given)
[14] = dose group Lx079-5 (dose not given)
[15] = dose group Lx079-6 (dose not given)

## CNCCOc1nn(-c2c(Cl)cc(C(F)(F)F)cc2Cl)c(C(Cl)Cl)c1[N+](=O)[O-].Cl [Lx088, 2-((1-(2,6-Dichloro-4-(trifluoromethyl)phenyl)-5-(dichloromethyl)-4-nitro-1H-pyrazol-3-yl)oxy)-N-methylethanaminium chloride]
M. bovis BCG [1]
  MIC: 0.781 µg/mL
PtK2 cells; 6.6 µg/ml
  morphological effect / ER stress: produced less ER stress
PtK2 cells; 13.3 µg/ml
  morphological effect / ER stress: induced massive ER stress

## CNCCOc1nn(-c2c(Cl)cc(Cl)cc2Cl)c(C(Cl)Cl)c1[N+](=O)[O-].Cl [LX079, 2-((5-(Dichloromethyl)-4-nitro-1-(2,4,6-trichlorophenyl)-1H-pyrazol-3-yl)oxy)-N-methylethanaminium chloride]
M. tuberculosis H37Rv
  MIC: 0.18 µg/mL
L929 cell line [2]
  IC50: 2.2 µg/mL
L929 cell line [3]
  IC50: 5.5 µg/mL
M. bovis BCG [4]; 2 µg/ml, 72 hours, in comparison to the untreated controls
  decrease of log CFU: around 2 log CFU
M. bovis BCG [4]; infected macrophage model, Fig. 1
  intracellular activity against M. bovis BCG: significant intracellular activity
[5]; 1 µM, mice microsomes 0.5 mg/mL, NADPH, 37 °C
  t1/2 (in vitro): 5.937 ± 2.36 min
[5]; mouse, pooled liver microsomes, pH 7.4, 1 µM, mice microsomes 0.5 mg/mL, NADPH, 37 °C, read-out: t1/2 (in vitro)
  half-life at 1 µM: 5.94 ± 2.36 min
[5]; mouse, pooled mouse liver microsomes, pH 7.4, mice microsomes, corrected for binding to microsomes, read-out: CLint, inc
  microsomal CLint at 1 µM: 2820 ± 1120 µL/min/mg
[5]; scaled up from the in vitro t1/2, SMW: standard mouse weight
  CLint (hepatic intrinsic clearance): 221.81± 88.23 ml/min/SMW
[6]; C57BL/6 mice, oral, every day for 5 days on week 2 post infection
  effect on the bacillary load in lungs and spleen compared to sham: decrease the bacillary load in both in lungs and spleen; also recorded: clear positive inhibitory effect on the survival of the TB pathogen
[6]; [10]
  p (Lungs): 0.0032
  p (Spleen): 0.0009
[6]; [11]
  p (Lungs): 0.0002
  p (Spleen): 0.0343
[6]; [12]
  p (Lungs): 0.0010
  p (Spleen): 0.0002
[6]; [13]
  p (Lungs): 0.0004
  p (Spleen): 0.0117
[6]; [14]
  p (Lungs): 0.0002
  p (Spleen): 0.0164
[6]; [15]
  p (Lungs): 0.0002
  p (Spleen): 0.0031
M. bovis BCG [1]
  MIC: 0.6 µg/mL
PtK2 cells; 5µg/ml
  morphological effect / ER stress: did not produce morphological abnormalities
PtK2 cells; 6.6 µg/ml
  morphological effect / ER stress: induced massive ER stress
PtK2 cells; concentration 25 times higher than the MIC
  morphological changes of the treated cells after immunofluorescence staining: no morphological changes
[7]
  microscopic examination of liver, spleen, lungs, and kidneys: No pathological abnormalities were detected
[8]; iv, 12.5 mg/kg
  C0: 660 ± 70 ng/mL
  CL: 394 ± 20.3 mL/min/kg
  K (elimination rate constant): 1.79 ± 0.44
  t1/2: 25.8 min
  time in which the plasma concentration was exceeding the in vitro MIC (T > MIC): less than 1 hour
[8]; 12.5 mg/kg
  F (bioavailability): 27.583 ± 2.457%
[8]; 25 mg/kg
  F (bioavailability): 32.662 ± 7.715%
In vivo; iv, 12.5 mg/kg
  AUC: 530 ± 30 ng·h/mL
  C0: 660 ± 70 ng/mL
  clearance: 394 mL/min/kg
  half-life: 25.8 ± 16.2 min
In vivo; po, 12.5 mg/kg
  AUC: 150 ± 20 ng·h/mL
  bioavailability: 27.6 ± 2.46%
In vivo; po, 25 mg/kg
  AUC: 350 ± 70 ng·h/mL
  bioavailability: 32.7 ± 7.72%
[9]; 62.5 mg/kg single oral dose
  No. of dead mice: 0
  % Cumulative of dead mice: 0%
[9]; 125 mg/kg single oral dose
  No. of dead mice: 2
  % Cumulative of dead mice: 22%
[9]; 250 mg/kg single oral dose
  No. of dead mice: 1
  % Cumulative of dead mice: 42.85%
[9]; female, C57/BL6, mouse, in vivo, po
  LD50 at 14 days: > 250 mg/kg

## CCNCCOc1nn(-c2c(Cl)cc(Cl)cc2Cl)c(C(Cl)Cl)c1[N+](=O)[O-].Cl [Lx089, 2-((5-(Dichloromethyl)-4-nitro-1-(2,4,6-trichlorophenyl)-1H-pyrazol-3-yl)oxy)-N-ethylethanaminium chloride]
M. bovis BCG [1]
  MIC: 0.781 µg/mL
